Data: ChEMBL document CHEMBL6127034, “Design, synthesis and biological evaluation of a novel PAK1 degrader for the treatment of triple negative breast cancer” (Bioorg Med Chem, 2024)
Active and inactive are the calls of the source. The calls are words filed in the database; no cut-off is given here.

Assays:
MDA-MB-231 [1] = assay: Induction of apoptosis in human MDA-MB-231 cells assessed as early apoptotic cells at 2.5 to 10 uM incubated for 12 hrs by Annexin V-FITC/PI staining based flow cytometry (reference value: 1.70 %); format: functional; conditions: dose 2.5-10 µM
[2] = biological target: Serine/threonine-protein kinase PAK 3 (Homo sapiens) (UniProt O75914); assay: Inhibition of PAK3 in human MDA-MB-231 cells incubated upto 48 hrs by Western blot analysis; format: cell-based
MDA-MB-231 [3] = assay: Induction of apoptosis in human MDA-MB-231 cells assessed as viable cells at 2.5 to 10 uM incubated for 48 hrs by Annexin V-FITC/PI staining based flow cytometry (reference value: 94.8 %); format: functional; conditions: dose 2.5-10 µM
MDA-MB-231 [4] = assay: Induction of apoptosis in human MDA-MB-231 cells assessed as increase in cleaved caspase-9 level at 2.5 to 10 uM incubated upto 48 hrs by Western blot analysis; format: functional, cell-based; conditions: dose 2.5-10 µM
MDA-MB-231 [5] = assay: Induction of apoptosis in human MDA-MB-231 cells assessed as viable cells at 2.5 to 10 uM incubated for 12 hrs by Annexin V-FITC/PI staining based flow cytometry (reference value: 94.8 %); format: functional; conditions: dose 2.5-10 µM
[6] = biological target: T1, Serine/threonine-protein kinase PAK 1 (Homo sapiens, UniProt Q13153); assay: Inhibition of PAK1 in human MDA-MB-231 cells incubated upto 48 hrs by Western blot analysis; format: cell-based
MDA-MB-231 [7] = assay: Inhibition of cell migration in human MDA-MB-231 cells at 2.5 uM incubated for 24 hrs by transwell assay; format: functional, cell-based
[8] = biological target: T1, Serine/threonine-protein kinase PAK 1; assay: Inhibition of PAK1 in human MDA-MB-231 cells at 5 uM incubated for 24 hrs by immunofluorescence based analysis; format: cell-based
MDA-MB-231 [9] = assay: Induction of apoptosis in human MDA-MB-231 cells assessed as early apoptotic cells at 2.5 uM incubated for 12 to 48 hrs by Annexin V-FITC/PI staining based flow cytometry (reference value: 1.12 %); format: functional; conditions: time 12-48 hrs
[10] = biological target: T2, von Hippel-Lindau disease tumor suppressor/Serine/threonine-protein kinase PAK 1 (Homo sapiens, UniProt Q13153+P40337); assay: PROTAC activity at VHL/PAK1 in human MDA-MB-231 cells assessed as induction of protein degradation incubated for 48 hrs by Western blot analysis; format: cell-based
[11] = biological target: T1, Serine/threonine-protein kinase PAK 1; assay: Binding affinity to CM5 chip-immobilized recombinant PAK1 (unknown origin) by SPR analysis
[12] = biological target: T1, Serine/threonine-protein kinase PAK 1; assay: In vivo inhibition of PAK1 in human MDA-MB-231 cells xenografted in BALB/c mouse at 20 mg/kg, ip qd for 12 days by Western blot analysis; format: functional, organism-based; conditions: time 12.0 day
MDA-MB-231 [13] = assay: Antiproliferative activity against human MDA-MB-231 cells assessed as decrease in Ki-67 expression at 5 uM incubated for 24 hrs by immunofluorescence based analysis; format: functional, cell-based
MDA-MB-231 [14] = assay: Induction of apoptosis in human MDA-MB-231 cells assessed as necrotic cells at 2.5 to 10 uM incubated for 12 hrs by Annexin V-FITC/PI staining based flow cytometry (reference value: 1.08 %); format: functional; conditions: dose 2.5-10 µM
[15] = biological target: T2, von Hippel-Lindau disease tumor suppressor/Serine/threonine-protein kinase PAK 1; assay: PROTAC activity at VHL/PAK1 in human MDA-MB-231 cells assessed as induction of protein degradation at 0.1 uM incubated for 48 hrs by Western blot analysis relative to control; format: cell-based
Target sequence in this assay (Q13153 2-545 limits assumed): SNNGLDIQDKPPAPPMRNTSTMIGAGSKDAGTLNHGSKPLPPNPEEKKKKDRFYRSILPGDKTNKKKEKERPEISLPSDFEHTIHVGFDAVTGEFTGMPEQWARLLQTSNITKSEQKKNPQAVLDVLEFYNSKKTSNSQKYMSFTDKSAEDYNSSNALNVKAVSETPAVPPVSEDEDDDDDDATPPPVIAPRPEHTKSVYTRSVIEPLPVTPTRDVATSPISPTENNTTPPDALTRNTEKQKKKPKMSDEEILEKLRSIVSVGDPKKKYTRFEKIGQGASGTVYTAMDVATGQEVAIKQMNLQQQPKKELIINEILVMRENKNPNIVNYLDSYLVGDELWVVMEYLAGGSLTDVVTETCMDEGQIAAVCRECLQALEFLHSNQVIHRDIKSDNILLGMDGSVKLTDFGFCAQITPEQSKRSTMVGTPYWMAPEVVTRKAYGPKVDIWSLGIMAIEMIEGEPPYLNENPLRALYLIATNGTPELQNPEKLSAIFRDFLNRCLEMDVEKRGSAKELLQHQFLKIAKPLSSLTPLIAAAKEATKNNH
Target sequence in this assay (P40337 whole entry partner): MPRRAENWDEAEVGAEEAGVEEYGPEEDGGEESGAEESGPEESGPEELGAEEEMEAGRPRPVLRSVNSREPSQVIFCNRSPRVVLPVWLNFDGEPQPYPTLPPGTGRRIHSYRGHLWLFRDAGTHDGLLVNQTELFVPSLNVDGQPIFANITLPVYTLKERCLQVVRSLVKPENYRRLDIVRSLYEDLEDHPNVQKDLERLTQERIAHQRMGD

MDA-MB-231 [16] = assay: Induction of apoptosis in human MDA-MB-231 cells assessed as increase in cleaved caspase-3 level at 2.5 to 10 uM incubated upto 48 hrs by Western blot analysis; format: functional, cell-based; conditions: dose 2.5-10 µM
MDA-MB-231 [17] = assay: Antitumor activity against human MDA-MB-231 cells xenografted in BALB/c mouse assessed as reduction in tumor weight at 20 mg/kg, ip qd for 12 days; format: functional, organism-based; conditions: time 12.0 day
[18] = biological target: T2, von Hippel-Lindau disease tumor suppressor/Serine/threonine-protein kinase PAK 1; assay: PROTAC activity at VHL/PAK1 in human MDA-MB-231 cells assessed as induction of protein degradation at 2.5 uM incubated for 48 hrs by Western blot analysis relative to control; format: cell-based
Target sequence in this assay (Q13153 2-545 limits assumed): as the sequence (Q13153 2-545 limits assumed) above
Target sequence in this assay (P40337 whole entry partner): as the sequence (P40337 whole entry partner) above

MDA-MB-231 [19] = assay: Induction of apoptosis in human MDA-MB-231 cells assessed as decrease in Bcl-2 level at 2.5 to 10 uM incubated upto 48 hrs by Western blot analysis; format: functional, cell-based; conditions: dose 2.5-10 µM
[20] = Toxicity in BALB/c mouse xenografted with human MDA-MB-231 cells assessed as body weight change at 20 mg/kg, ip qd for 12 days; format: organism-based; conditions: in vivo, 288 h, time 12 day
MDA-MB-231 [21] = assay: Induction of apoptosis in human MDA-MB-231 cells assessed as late apoptotic cells at 2.5 to 10 uM incubated for 48 hrs by Annexin V-FITC/PI staining based flow cytometry (reference value: 2.46 %); format: functional; conditions: dose 2.5-10 µM
MDA-MB-231 [22] = assay: Inhibition of cell migration in human MDA-MB-231 cells at 2.5 uM incubated upto 48 hrs by wound healing assay; format: functional, cell-based
MDA-MB-231 [23] = assay: Antiproliferative activity against human MDA-MB-231 cells incubated for 48 hrs by MTT assay; format: functional, cell-based; conditions: MDA-MB-231, 48 h
MDA-MB-231 [24] = assay: Induction of apoptosis in human MDA-MB-231 cells assessed as necrotic cells at 2.5 uM incubated for 12 to 48 hrs by Annexin V-FITC/PI staining based flow cytometry (reference value: 0.43 %); format: functional; conditions: time 12-48 hrs
MDA-MB-231 [25] = assay: Inhibition of cell migration in human MDA-MB-231 cells upto 10 uM incubated for 24 hrs by transwell assay; format: functional, cell-based
MDA-MB-231 [26] = assay: Antitumor activity against human MDA-MB-231 cells xenografted in BALB/c mouse assessed as reduction in tumor volume at 20 mg/kg, ip qd for 12 days; format: functional, organism-based; conditions: time 12.0 day
MDA-MB-231 [27] = assay: Induction of apoptosis in human MDA-MB-231 cells xenografted in BALB/c mouse assessed as increase in E-Cadherin level at 20 mg/kg, ip qd for 12 days by Western blot analysis; format: functional, organism-based; conditions: time 12.0 day
MDA-MB-231 [28] = assay: Inhibition of cell migration in human MDA-MB-231 cells upto 10 uM incubated upto 48 hrs by wound healing assay; format: functional, cell-based
MDA-MB-231 [29] = assay: Induction of apoptosis in human MDA-MB-231 cells xenografted in BALB/c mouse assessed as decrease in MMP-2 at 20 mg/kg, ip qd for 12 days by Western blot analysis; format: functional, organism-based; conditions: time 12.0 day
MDA-MB-231 [30] = assay: Induction of apoptosis in human MDA-MB-231 cells assessed as early apoptotic cells at 2.5 to 10 uM incubated for 48 hrs by Annexin V-FITC/PI staining based flow cytometry (reference value: 1.70 %); format: functional; conditions: dose 2.5-10 µM
MDA-MB-231 [31] = assay: Inhibition of cell proliferation of human MDA-MB-231 cells at 2.5 uM by EdU staining based analysis; format: functional
[32] = biological target: T1, Serine/threonine-protein kinase PAK 1; assay: In vivo inhibition of PAK1 in human MDA-MB-231 cells xenografted in BALB/c mouse at 20 mg/kg, ip qd for 12 days by IHC analysis; format: functional, organism-based; conditions: time 12.0 day
[33] = biological target: T1, Serine/threonine-protein kinase PAK 1; assay: Induction of thermal stability of PAK1 in human MDA-MB-231 cells at 10 uM under 37 to 67 degreeC heat exposure by CETSA; format: cell-based
MDA-MB-231 [34] = assay: Antiproliferative activity against human MDA-MB-231 cells assessed as decrease in green fluorescence by EdU staining based analysis; format: functional, cell-based
[35] = biological target: T1, Serine/threonine-protein kinase PAK 1; assay: Inhibition of PAK1 phosphorylation at S199 in human MDA-MB-231 cells incubated upto 48 hrs by Western blot analysis; format: cell-based

T1 sequence (Q13153 whole entry): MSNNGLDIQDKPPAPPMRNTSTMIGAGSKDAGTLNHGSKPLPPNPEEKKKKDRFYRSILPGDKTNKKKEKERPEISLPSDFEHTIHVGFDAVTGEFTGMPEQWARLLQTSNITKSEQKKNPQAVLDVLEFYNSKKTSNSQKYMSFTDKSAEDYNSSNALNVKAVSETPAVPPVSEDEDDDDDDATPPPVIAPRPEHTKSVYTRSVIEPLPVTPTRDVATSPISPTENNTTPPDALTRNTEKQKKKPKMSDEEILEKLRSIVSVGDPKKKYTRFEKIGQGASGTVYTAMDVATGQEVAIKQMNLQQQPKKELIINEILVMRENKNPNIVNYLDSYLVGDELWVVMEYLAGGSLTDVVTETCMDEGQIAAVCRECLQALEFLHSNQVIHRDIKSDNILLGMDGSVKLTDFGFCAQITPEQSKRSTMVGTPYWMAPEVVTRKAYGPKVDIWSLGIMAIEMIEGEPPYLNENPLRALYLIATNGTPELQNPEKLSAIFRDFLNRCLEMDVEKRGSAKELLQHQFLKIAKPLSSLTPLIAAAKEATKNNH
Chain of Serine/threonine-protein kinase PAK 3 (Homo sapiens) (O75914 whole entry, looked up): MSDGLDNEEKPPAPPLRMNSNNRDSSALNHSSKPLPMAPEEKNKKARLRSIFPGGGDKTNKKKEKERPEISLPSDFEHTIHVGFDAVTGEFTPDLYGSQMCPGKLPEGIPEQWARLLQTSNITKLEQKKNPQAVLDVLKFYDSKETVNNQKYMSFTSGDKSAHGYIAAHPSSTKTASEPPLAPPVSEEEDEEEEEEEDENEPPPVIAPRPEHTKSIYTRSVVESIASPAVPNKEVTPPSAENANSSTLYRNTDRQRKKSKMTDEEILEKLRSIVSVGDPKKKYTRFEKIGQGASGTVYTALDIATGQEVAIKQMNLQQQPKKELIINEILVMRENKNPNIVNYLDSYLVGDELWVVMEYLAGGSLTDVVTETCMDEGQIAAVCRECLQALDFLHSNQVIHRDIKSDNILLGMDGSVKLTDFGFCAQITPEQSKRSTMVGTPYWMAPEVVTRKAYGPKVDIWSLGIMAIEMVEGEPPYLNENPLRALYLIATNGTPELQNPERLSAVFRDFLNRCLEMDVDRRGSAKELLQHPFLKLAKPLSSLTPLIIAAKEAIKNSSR

inhibition [2]: inactive | inhibition [6]: Active | inhibition [8]: Active | DC50 [10]: 480 nM | Activity ([10]; dose <= 200.0 µM): Dose-Dependent Effect | Activity [11]: Dose-Dependent Effect | inhibition [12]: Active | Activity [15]: 52.4% | Activity [18]: 71% | IC50 (MDA-MB-231 [23]): 1270 nM | inhibition [32]: Active | Activity [33]: Active | inhibition [35]: Active
Structure (SMILES): Cc1ncsc1-c1ccc([C@H](C)NC(=O)[C@@H]2C[C@@H](O)CN2C(=O)[C@@H](NC(=O)CCc2cn(CCCCCCCn3c(=O)c(-c4ccc(Cl)cc4Cl)cc4cnc(NC5CC5)nc43)nn2)C(C)(C)C)cc1
Activity (MDA-MB-231 [1]): 4.37% | Activity (MDA-MB-231 [3]): 55.4% | Activity (MDA-MB-231 [4]): Active | Activity (MDA-MB-231 [5]): 86.3% | inhibition (MDA-MB-231 [7]): Active | Activity (MDA-MB-231 [9]): 5.62% | Activity (MDA-MB-231 [13]): Active | Activity (MDA-MB-231 [14]): 3.7% | Activity (MDA-MB-231 [16]): Active | Activity (MDA-MB-231 [17]): Active | Activity (MDA-MB-231 [19]): Active | Activity [20]: Non-Toxic | Activity (MDA-MB-231 [21]): 4.94% | inhibition (MDA-MB-231 [22]): Active | Activity (MDA-MB-231 [24]): 1.4% | inhibition (MDA-MB-231 [25]): Active | Activity (MDA-MB-231 [26]): Active | Activity (MDA-MB-231 [27]): Active | inhibition (MDA-MB-231 [28]): Active | Activity (MDA-MB-231 [29]): Active | Activity (MDA-MB-231 [30]): 37.9% | inhibition (MDA-MB-231 [31]): Active | Activity (MDA-MB-231 [34]): Active
